As usually defined, the IC50 is the point on the concentration scale where inhibition reaches its midpoint. What is called EC50 is the concentration that produces a half-maximal response.

The values that follow come from patent publication US12162867B2, “Inhibitors of RNA helicase DHX9 and uses thereof” (ACCENT THERAPEUTICS, INC., priority 2022, dated 2024).

Assay type in all cases: cell-based
One test concerns LS411N cells. Kind of test: DHX9 cellular proliferation assay (CellTiter-Glo), LS411N (CRC-MSI). The conditions noted are these: Homo sapiens, LS-411N, LS411N, performed at Pharmaron, read-out: LS411N (CRC-MSI-H) Antiproliferative IC50. Background: In ATP-based viability assays light output follows the ATP content of the culture.
In the next test the test system is NCI-H747 cells. Kind of test: DHX9 cellular proliferation assay (CellTiter-Glo), NCI-H747 (CRC-MSS). To be noted: Homo sapiens, performed at Pharmaron, read-out: H747 (CRC-MSS) Antiproliferative IC50.
Test [1] concerns circBRIP1 in HCT116 cells. Kind of test: DHX9 circBRIP1 cellular target engagement SYBR Green assay (qPCR). To be noted: Homo sapiens, HCT-116, circBRIP1, HCT116 cells, read-out: DHX9 Cellular Target Engagement EC50. On the technique in general: Real-time PCR tracks product formation cycle by cycle.

SMILES strings stand for the structures. Like-named read-outs stand apart in the source and are kept apart here.

With `Cc1cc(C(=O)Nc2cc(Cl)cc(NS(C)(=O)=O)c2)cn1-c1ccc(F)cn1` [Example 390], the IC50 with LS411N cells (CRC-MSI-H) was 63.1 nM; in the test with NCI-H747 cells (NCI-H747, NCI-H747, CRC-MSS), over 10000 nM. The EC50 in test [1] (SyBr assay (marked ^+)) came out at 167 nM.
For `Cc1cc(C(=O)Nc2cc(Cl)cc(NS(C)(=O)=O)c2)cn1-c1ccc(N2CC(F)C2)cn1` [Example 395], the IC50 with LS411N cells turned out to be 117 nM; in the test with NCI-H747 cells (NCI-H747, NCI-H747) it was 9220 nM. For the same compound, the EC50 in test [1] (^+ SyBr assay was used) was found to be 23.8 nM.
Turning to `CS(=O)(=O)Nc1cc(Cl)cc(NC(=O)c2cc(-c3ccccn3)c(C3CC3)s2)c1` [Example 177, N-(3-chloro-5-(methylsulfonamido)phenyl)-5-cyclopropyl-4-(pyridin-2-yl)thiophene-2-carboxamide], the IC50 in the test with LS411N cells (CRC-MSI-H) is 251 nM; in the test with NCI-H747 cells (NCI-H747, NCI-H747, CRC-MSS), over 10000 nM. Also, the EC50 in test [1] (SyBr assay (marked ^+)) amounted to 84.8 nM.
Turning to `Cc1cccc(OCc2cccc(F)c2)c1-n1cc(C(=O)Nc2cc(Cl)cc(NS(C)(=O)=O)c2)cn1` [Example 255], the IC50 in the test with LS411N cells (CRC-MSI-H) is 74.3 nM; in the test with NCI-H747 cells (NCI-H747, NCI-H747, CRC-MSS) it was over 10000 nM. In addition, the EC50 in test [1] (SyBr assay (marked ^+)) is 378 nM.
Consider `CS(=O)(=O)Nc1cc(Br)cc(NC(=O)c2cnn(-c3ccc(N4CCOCC4)cn3)c2)c1` [Example 55], for which the half-inhibitory concentration (IC50) is 1060 nM in the test on LS411N cells (CRC-MSI-H) and over 10000 nM with NCI-H747 cells (NCI-H747, NCI-H747, CRC-MSS). Besides, in test [1] (SyBr assay (marked ^+)), the EC50 is 143 nM.
For `Cc1cc(C(=O)Nc2cc(Cl)cc(NS(C)(=O)=O)c2)cn1-c1ncccc1OCc1nccs1` [Example 280], in that order: 116 nM, over 10000 nM and 74.2 nM.
For the compound `Cc1cccnc1-c1csc(C(=O)Nc2cc(Br)cc(NS(C)(=O)=O)c2)c1` [Example 33], the IC50 with LS411N cells (CRC-MSI-H) was 116 nM; in the test with NCI-H747 cells (NCI-H747, NCI-H747, CRC-MSS), over 10000 nM. The EC50 in test [1] (SyBr assay (marked ^+)) was 21.5 nM.
`CN1C(=O)N(c2csc(C(=O)Nc3cc(Cl)cc(NS(C)(=O)=O)c3)c2)C(=O)C1(C)C` [Example 432]: the IC50 in the test on LS411N cells is 141 nM; in the test with NCI-H747 cells (NCI-H747, NCI-H747) it was over 10000 nM. Besides, the EC50 in test [1] (^+ SyBr assay was used) stood at 112 nM.
For `COCc1ccc(-n2cc(C(=O)Nc3cc(Cl)cc(NS(C)(=O)=O)c3)cc2C)nc1` [Example 447], in that order: 110 nM, over 10000 nM and 27.8 nM.
In the case of `CS(=O)(=O)Nc1cc(Cl)cc(NC(=O)c2cc(-c3ncccc3OCc3cccnc3)cs2)c1` [Example 217], the IC50 in the test on LS411N cells (CRC-MSI-H) is 53.3 nM; with NCI-H747 cells (NCI-H747, NCI-H747, CRC-MSS), over 10000 nM. For the same compound, the EC50 in test [1] (SyBr assay (marked ^+)) amounted to 13.6 nM.
Turning to `Cc1cc(C(=O)Nc2cc(Cl)cc(NS(C)(=O)=O)c2)cn1-c1ccc(N2CC(F)(F)C2)cn1` [Example 399], the IC50 with LS411N cells was 95.2 nM; in the test with NCI-H747 cells (NCI-H747, NCI-H747), 8890 nM. Moreover, the EC50 in test [1] (^+ SyBr assay was used) came to 34.4 nM.
As to `CS(=O)(=O)Nc1cc(Cl)cc(NC(=O)c2cc(-c3ccccn3)c(CO)s2)c1` [Example 163, N-(3-chloro-5-(methylsulfonamido)phenyl)-5-(hydroxymethyl)-4-(pyridin-2-yl)thiophene-2-carboxamide], the IC50 in the test on LS411N cells (CRC-MSI-H) was 609 nM; in the test with NCI-H747 cells (NCI-H747, NCI-H747, CRC-MSS), over 10000 nM. Further, in test [1] (SyBr assay (marked ^+)), the EC50 is 70 nM.
For `Cc1ccc(OCc2cccc(F)c2)c(-n2cc(C(=O)Nc3cc(Cl)cc(NS(C)(=O)=O)c3)cn2)n1` [Example 204], the IC50 in the test with LS411N cells (CRC-MSI-H) was 54.8 nM; with NCI-H747 cells (NCI-H747, NCI-H747, CRC-MSS), over 10000 nM. Further, the EC50 in test [1] (SyBr assay (marked ^+)) stood at 53.9 nM.
On to `CS(=O)(=O)Nc1cc(Cl)cc(NC(=O)c2cnn(-c3ccc(N4CC5(COC5)C4)cc3OCc3cccc(F)c3)c2)c1` [Example 722], for which the IC50 is 50.6 nM in the test with LS411N cells and over 10000 nM with NCI-H747 cells (NCI-H747, NCI-H747). For the same compound, the EC50 in test [1] (^+ SyBr assay was used) was found to be 51.1 nM.
Turning to `COc1ccc(-c2cc(C(=O)Nc3cc(Cl)cc(NS(C)(=O)=O)c3)cn2C)nc1` [Example 573], the IC50 with LS411N cells was 103 nM; in the test on NCI-H747 cells (NCI-H747, NCI-H747), over 10000 nM. Moreover, in test [1] (^+ SyBr assay was used), the EC50 is 106 nM.
As to `CS(=O)(=O)Nc1cc(Cl)cc(NC(=O)c2cc(-c3ncccc3OCc3ccccc3)cs2)c1` [Example 29], the IC50 in the test with LS411N cells (CRC-MSI-H) was 124 nM; with NCI-H747 cells (NCI-H747, NCI-H747, CRC-MSS) it was 9280 nM. Also, the EC50 in test [1] (SyBr assay (marked ^+)) came to 51.9 nM.
Take `CS(=O)(=O)Nc1cc(Cl)cc(NC(=O)c2cc(-c3ncccc3OCc3cnco3)cs2)c1` [Example 215]: the IC50 in the test on LS411N cells (CRC-MSI-H) is 118 nM; in the test with NCI-H747 cells (NCI-H747, NCI-H747, CRC-MSS), over 10000 nM. In test [1] (SyBr assay (marked ^+)), the EC50 came to 23.7 nM.
For the compound `CC(C)c1sc(C(=O)Nc2cc(Cl)cc(NS(C)(=O)=O)c2)cc1-c1ccccn1` [Example 233], the IC50 with LS411N cells (CRC-MSI-H) is 356 nM; in the test with NCI-H747 cells (NCI-H747, NCI-H747, CRC-MSS), over 10000 nM. The EC50 in test [1] (SyBr assay (marked ^+)) was 460 nM.
`CC(O)c1cc(C(=O)Nc2cc(Cl)cc(NS(C)(=O)=O)c2)cn1-c1ccccn1` (stereo not drawn) [Example 287]: the IC50 in the test with LS411N cells (CRC-MSI-H) was 165 nM; with NCI-H747 cells (NCI-H747, NCI-H747, CRC-MSS), over 10000 nM. For the same compound, in test [1] (SyBr assay (marked ^+)), the EC50 was 232 nM.
In the case of `Cc1sc(C(=O)Nc2cc(Cl)cc(NS(C)(=O)=O)c2)cc1-c1ncc(F)cn1` [Example 336], the IC50 in the test on LS411N cells (CRC-MSI-H) was 146 nM; with NCI-H747 cells (NCI-H747, NCI-H747, CRC-MSS), over 10000 nM. Besides, the EC50 in test [1] (SyBr assay (marked ^+)) turned out to be 84.6 nM.
For `Cn1cc(C(=O)Nc2cc(Cl)cc(NS(C)(=O)=O)c2)cc1-c1ncc(C(F)(F)F)cn1` [Example 571], the IC50 with LS411N cells stood at 159 nM; in the test on NCI-H747 cells (NCI-H747, NCI-H747), 3560 nM. The EC50 in test [1] (^+ SyBr assay was used) was 62.1 nM.
As to `CS(=O)(=O)Nc1cc(Cl)cc(NC(=O)c2cnn(-c3ncccc3OCc3cccc(F)c3)c2)c1` [Example 65], the IC50 in the test with LS411N cells (CRC-MSI-H) was 109 nM; with NCI-H747 cells (NCI-H747, NCI-H747, CRC-MSS) it was over 10000 nM. In addition, in test [1] (SyBr assay (marked ^+)), the EC50 came out at 63.1 nM.
On to `CS(=O)(=O)Nc1cc(Cl)cc(NC(=O)c2cc(CO)n(-c3ncccc3OCc3cncc(F)c3)c2)c1` [Example 723], for which the IC50 in the test with LS411N cells was 733 nM; in the test with NCI-H747 cells (NCI-H747, NCI-H747) it was over 10000 nM. Besides, the EC50 in test [1] (^+ SyBr assay was used) worked out at 73.5 nM.
As for `Cc1cc(C(=O)Nc2cc(Cl)cc(NS(C)(=O)=O)c2)cn1-c1ncccn1` [Example 59], the IC50 was 357 nM in the test on LS411N cells (CRC-MSI-H) and over 10000 nM with NCI-H747 cells (NCI-H747, NCI-H747, CRC-MSS). Also, the EC50 in test [1] (SyBr assay (marked ^+)) was determined as 104 nM.
For `Cc1cc(C(=O)Nc2cc(Cl)cc(NS(C)(=O)=O)c2)cn1-c1ccccc1` [Example 129, N-(3-chloro-5-(methylsulfonamido)phenyl)-5-methyl-1-phenyl-1H-pyrrole-3-carboxamide], in that order: 1090 nM, over 10000 nM and 333 nM.
The matching figures for `Cc1sc(C(=O)Nc2cc(Cl)cc(NS(C)(=O)=O)c2)cc1-c1ncccn1` [Example 22]: 115 nM, over 10000 nM and 35.8 nM.
With `CCOc1cnc(-c2cc(C(=O)Nc3cc(Cl)cc(NS(C)(=O)=O)c3)sc2C)nc1` [Example 335], the IC50 in the test with LS411N cells (CRC-MSI-H) was 52.6 nM; in the test on NCI-H747 cells (NCI-H747, NCI-H747, CRC-MSS) it was over 10000 nM. For the same compound, the EC50 in test [1] (SyBr assay (marked ^+)) is 51.1 nM.
Take `Cn1cc(C(=O)Nc2cc(Cl)cc(NS(C)(=O)=O)c2)cc1-c1ncccc1OCc1nccs1` [Example 279]: the IC50 in the test with LS411N cells (CRC-MSI-H) is 81.1 nM; with NCI-H747 cells (NCI-H747, NCI-H747, CRC-MSS), over 10000 nM. For the same compound, in test [1] (SyBr assay (marked ^+)), the EC50 worked out at 53.3 nM.
The matching figures for `Cc1cc(C(=O)Nc2cc(Cl)cc(NS(C)(=O)=O)c2)cn1-c1ccc(N2CCN(C(=O)N(C)C)CC2)cn1` [Example 284]: 161 nM, over 10000 nM and 103 nM.
Turning to `CS(=O)(=O)Nc1cc(Cl)cc(NC(=O)c2cnn(-c3ccccn3)c2)c1` [Example 37], the IC50 with LS411N cells (CRC-MSI-H) is 3470 nM; in the test on NCI-H747 cells (NCI-H747, NCI-H747, CRC-MSS) it was over 10000 nM. Further, the EC50 in test [1] (SyBr assay (marked ^+)) worked out at 830 nM.
For `CCOc1cnc(-c2csc(C(=O)Nc3cc(Cl)cc(NS(C)(=O)=O)c3)c2)nc1` [Example 342], in that order: 133 nM, over 10000 nM and 47.8 nM.
